In general, IC50 refers to the concentration that gives 50% inhibition.

The test system of this assay is C3H10T1/2 cells. Kind of assay: C3H assay: differentiation of C3H10T1/2 cells by mSHH, measurement of alkaline phosphatase. Format: cell-based, mouse. The following applies: Mus musculus, C3H 10T1/2; C3H10T1/2 cells stimulated with mSHH for 72 hours; alkaline phosphatase activity; read-out: IC50 Ranges.
On to `C[C@H]1CC(c2c[nH]c3ncccc23)CCN1S(=O)(=O)C1CN(C(=O)OC(C)(C)C)C1` (mixture of isomers) [Compound 45, tert-butyl 3-[(2R)-2-methyl-4-(1H-pyrrolo[2,3-b]pyridin-3-yl)piperidin-1-yl]sulfonylaze-tidine-1-carboxylate], for which the concentration for half-maximal inhibition (IC50) lay within 10 to 100 nM.
For the compound `CN(C)CC(C)(C)OC(=O)N1CCC(S(=O)(=O)N2CCC(c3c[nH]c4ncccc34)CC2)C1` (racemic) [Compound 147, [1-(dimethylamino)-2-methylpropan-2-yl]3-[4-(1H-pyrrolo[2,3-b]pyridin-3-yl)piperidin-1-yl]sulfonylpyrr olidine-1-carboxylate], the IC50 lay within 10 to 100 nM.
Regarding `CC(C)C(CO)NC(=O)N1CCC(S(=O)(=O)N2CCC(c3c[nH]c4ncccc34)CC2)C1` (racemic) [Compound 149, N-(1-hydroxy-3-methylbutan-2-yl)-3-[4-(1H-pyrrolo[2,3-b]pyridin-3-yl)piperidin-1-yl]sulfonylpyrr olidine-1-carboxamide], the half-maximal inhibitory concentration (IC50) fell in the range of 10 to 100 nM.
In the case of `CC(C)(C)OC(=O)N1CCC(S(=O)(=O)N2CCC(c3c[nH]c4ncccc34)CC2)C1` (racemic) [Compound 150, tert-butyl 3-[4-(1H-pyrrolo[2,3-b]pyridin-3-yl)piperidin-1-yl]sulfonylpyrr olidine-1-carboxylate], the IC50 lay within 10 to 100 nM.
Under `O=S(=O)(C1CCN(c2ccccn2)C1)N1CCC(c2c[nH]c3ncccc23)CC1` (racemic) [Compound 244, 3-[1-(1-pyridin-2-ylpyrrolidin-3-yl)sulfonylpiper-idin-4-yl]-1H-pyrrolo[2,3-b]pyridine] stands 100 to 1000 nM.
Consider `O=S(=O)(C1CCNC1)N1CCC(c2c[nH]c3ncccc23)CC1` (racemic) [Compound 249, 3-[1-(pyrrolidin-3-yl)sulfonylpiper-idin-4-yl]-1H-pyrrolo[2,3-b]pyridine], for which the IC50 lay in the range of 1000 to 10000 nM.
Consider `CC(C)(C)OC(=O)N1CCC(S(=O)(=O)N2CCC(c3ccncc3)CC2)C1` (racemic) [Compound 269, tert-butyl 3-(4-pyridin-4-ylpiperidin-1-yl)sulfonylpyrrolidine-1-carboxylate], for which the IC50 was in the range of 100 to 1000 nM.
Under `CN(C(=O)N1CCC(S(=O)(=O)N2CCC(c3ccncc3)CC2)C1)C(C)(C)C` (racemic) [Compound 271, N-tert-butyl-N-methyl-3-(4-pyridin-4-ylpiperidin-1-yl)sulfonylpyrr olidine-1-carboxamide] stands 100 to 1000 nM.
`CC(C)[C@H](CO)NC(=O)N1CC(S(=O)(=O)N2CCC(c3ccc(F)cc3)CC2)C1` (racemic) [Compound 344, 3-[4-(4-fluorophenyl)piperidin-1-yl]sulfonyl-N-[1-hydroxy-3-methylbutan-2-yl] azetidine-1-carboxamide]: the IC50 was in the range of 100 to 1000 nM.
Regarding `CC(C)C(CO)NC(=O)N1CC(S(=O)(=O)N2CCC(c3ccc(C#N)cc3)CC2)C1` (racemic) [Compound 348, 3-[4-(4-cyanophenyl)piperidin-1-yl]sulfonyl-N-[1-hydroxy-3-methylbutan-2-yl]azetidine-1-carboxamide], the IC50 is 100 to 1000 nM.
Next, `CC(C)(C)OC(=O)N1CC(S(=O)(=O)N2CCC(c3c[nH]c4ncc(F)cc34)CC2)C1` [Compound 1, tert-butyl 3[4-(5-fluoro-1H-pyrrolo[2,3-b]pyridin-3-yl)piperidin-1-yl]sulfonylaze-tidine-1-carboxylate]: 100 to 1000 nM; `Cc1cnc2[nH]cc(C3CCN(S(=O)(=O)C4CN(C(=O)OC(C)(C)C)C4)CC3)c2c1` [Compound 2, tert-butyl 3-[4-(5-methyl-1H-pyrrolo[2,3-b]pyridin-3-yl)piperidin-1-yl] sulfonylaze-tidine-1-carboxylate]: 1000 to 10000 nM.
Regarding `CC(C)(C)OC(=O)N1CC(S(=O)(=O)N2CCC(c3cncn3Cc3ccccc3)CC2)C1` [Compound 3, tert-butyl 3-[4-(3-benzylimidazol-4-yl)piperidin-1-yl]sulfonylaze-tidine-1-carboxylate], the IC50 is 100 to 1000 nM.
Turning to `CC(C)(C)OC(=O)N1CCn2c(C3CCN(S(=O)(=O)C4CN(C(=O)OC(C)(C)C)C4)CC3)cnc2C1` [Compound 4, tert-butyl 3-[1-[1-[(2-methylpropan-2-yl)oxycarbonyl]azetidin-3-yl]sulfonylpiper-idin-4-yl]-6,8-dihydro-5H-imidazo[1,2-a]pyrazine-7-carboxylate], the IC50 lay within 1000 to 10000 nM.
Under `CC(C)(C)OC(=O)N1CC(S(=O)(=O)N2CCC(c3cnc4n3CCC4)CC2)C1` [Compound 5, tert-butyl 3-[4-(6,7-dihydro-5H-pyrrolo[1,2-a]imidazol-3-yl)piperidin-1-yl]sulfonylaze-tidine-1-carboxylate] stands 1000 to 10000 nM; under `COc1ccc(C2CCN(S(=O)(=O)C3CN(C(=O)OC(C)(C)C)C3)CC2)cc1` [Compound 6, tert-butyl 3-[4-(4-methoxyphenyl)piperidin-1-yl]sulfonylaze-tidine-1-carboxylate], 100 to 1000 nM; under `CC(C)(C)OC(=O)N1CCC(S(=O)(=O)N2CCC(c3ccnc4[nH]ccc34)CC2)CC1` [Compound 7, tert-butyl 4-[4-(1H-pyrrolo[2,3-b]pyridin-4-yl)piperidin-1-yl]sulfonylpiper-idine-1-carboxylate], 100 to 1000 nM.
On to `Cc1ccc(S(=O)(=O)n2ccc3c(C4CCN(S(=O)(=O)C5CCN(C(=O)OC(C)(C)C)CC5)CC4)ccnc32)cc1` [Compound 8, tert-butyl 4-[4-[1-(4-methylphenyl)-sulfonylpyrrolo[2,3-b]pyridin-4-yl]piperidin-1-yl]sulfonylpiper-idine-1-carboxylate], for which the IC50 lay in the range of 10 to 100 nM.
Under `Cc1ccc(C2CCN(S(=O)(=O)C3CCN(C(=O)OC(C)(C)C)CC3)CC2)c(C)c1` [Compound 9, tert-butyl 4-[4-(2,4-dimethylphenyl)piperidin-1-yl]sulfonylpiper-idine-1-carboxylate] stands 1000 to 10000 nM; under `CC(C)(C)OC(=O)N1CCC(S(=O)(=O)N2CCC(c3ncnc4[nH]ccc34)CC2)CC1` [Compound 10, tert-butyl 4-[4-(7H-pyrrolo[2,3-d]pyrimidin-4-yl)piperidin-1-yl]sulfonylpiper-idine-1-carboxylate], 1000 to 10000 nM; under `CC(C)(C)OC(=O)N1CCC(S(=O)(=O)N2CCC(c3ccnc4ccccc34)CC2)CC1` [Compound 11, tert-butyl 4-(4-quinolin-4-ylpiperidin-1-yl)sulfonylpiper-idine-1-carboxylate], 100 to 1000 nM.
As to `Cc1ccc(S(=O)(=O)n2ccc3c(C4CCN(S(=O)(=O)C5CCN(C(=O)OC(C)(C)C)CC5)CC4)ncnc32)cc1` [Compound 12, tert-butyl 4-[4-[7-(4-methylphenyl)-sulfonylpyrrolo[2,3-d]pyrimidin-4-yl]piperidin-1-yl]sulfonylpiper-idine-1-carboxylate], the IC50 lay in the range of 100 to 1000 nM.
For the compound `COc1ccc(C2CCN(S(=O)(=O)C3CCN(C(=O)OC(C)(C)C)CC3)CC2)cc1` [Compound 13, tert-butyl 4-[4-(4-methoxyphenyl)piperidin-1-yl]sulfonylpiper-idine-1-carboxylate], the IC50 was 100 to 1000 nM.
For `CC(C)(C)OC(=O)N1CCC(S(=O)(=O)N2CCC(c3ccccc3)CC2)CC1` [Compound 14, tert-butyl 4-(4-phenylpiperidin-1-yl)sulfonylpiper-idine-1-carboxylate], the IC50 was 100 to 1000 nM.
`COC(=O)c1cnc2[nH]cc(C3CCN(S(=O)(=O)C4CN(C(=O)OC(C)(C)C)C4)CC3)c2c1` [Compound 15, methyl 3-[1-[1-[(2-methylpropan-2-yl)oxycarbonyl]azetidin-3-yl]sulfonylpiper-idin-4-yl]-1H-pyrrolo[2,3-b]pyridine-5-carboxylate]: the IC50 was 1000 to 10000 nM.
For the compound `CC(C)(C)OC(=O)N1CC(S(=O)(=O)N2CCC(c3csc4cccnc34)CC2)C1` [Compound 17, tert-butyl 3-(4-thieno[3,2-b]pyridin-3-ylpiperidin-1-yl)sulfonylaze-tidine-1-carboxylate], the IC50 lay in the range of 10 to 100 nM.
In the case of `CC(C)(C)OC(=O)N1CCC(S(=O)(=O)N2CCC(c3csc4cccnc34)CC2)CC1` [Compound 18, tert-butyl 4-(4-thieno[3,2-b]pyridin-3-ylpiperidin-1-yl)sulfonylpiper-idine-1-carboxylate], the IC50 lay within 10 to 100 nM.
As to `CC(C)(C)OC(=O)N1CCC(S(=O)(=O)N2CCC(c3c[nH]c4ncccc34)CC2)CC1` [Compound 19, tert-butyl 4-[4-(1H-pyrrolo[2,3-b]pyridin-3-yl)piperidin-1-yl]sulfonylpiper-idine-1-carboxylate], the half-maximal inhibitory concentration (IC50) was 10 to 100 nM.
Next, `CC(C)(C)OC(=O)N1CCC(S(=O)(=O)N2CCC(C3CCOCC3)CC2)CC1` [Compound 20, tert-butyl 4-[4-(oxan-4-yl)piperidin-1-yl]sulfonylpiper-idine-1-carboxylate]: 1000 to 10000 nM; `O=C(Nc1ccccc1)N1CCC(S(=O)(=O)N2CCC(c3ccncc3)CC2)CC1` [Compound 21, N-phenyl-4-(4-pyridin-4-ylpiperidin-1-yl)sulfonylpiper-idine-1-carboxamide]: 1000 to 10000 nM; `CC(C)(C)OC(=O)N1CC(S(=O)(=O)N2CCC(c3ccncc3)CC2)C1` [Compound 22, tert-butyl 3-(4-pyridin-4-ylpiperidin-1-yl)sulfonylaze-tidine-1-carboxylate]: 100 to 1000 nM.
Next, `CC(C)(C)OC(=O)N1CCC(S(=O)(=O)N2CCC(c3ccncc3)CC2)CC1` [Compound 23, tert-butyl 4-(4-pyridin-4-ylpiperidin-1-yl)sulfonylpiper-idine-1-carboxylate]: 100 to 1000 nM; `CC(C)C(CO)NC(=O)N1CC(S(=O)(=O)N2CCC(c3ccncc3)CC2)C1` (stereo not shown) [Compound 24, 3-(4-pyridin-4-ylpiperidin-1-yl)sulfonyl-N-[1-hydroxy-3-methylbutan-2-yl]azetidine-1-carboxamide]: 100 to 1000 nM; `Cc1noc(C)c1NC(=O)N1CC(S(=O)(=O)N2CCC(c3cccnn3)CC2)C1` [Compound 25, N-(3,5-dimethyl-1,2-oxazol-4-yl)-3-(4-pyridazin-3-ylpiperidin-1-yl)sulfonylaze-tidine-1-carboxamide]: 1000 to 10000 nM.

Source of the values: US10961238B2, “Modulators of hedgehog (Hh) signaling pathway” (E-THERAPEUTICS PLC, priority 2016, dated 2021).
